Data reported in patent US9072698B2, “Method for screening anti-cancer compounds inhibiting function of TM4SF5 and anti-cancer composition containing chalcone compounds” (Seoul National University Industry Foundation, priority 2006, dated 2015).
Values after ≈ are worked out from the molar mass of the structure shown.

How the values were obtained:
Type in all cases: cell-based
A-549 (lung carcinoma) = assay: In vitro cytotoxicity, sulforhodamine B (SRB) method, A-549; settings: Homo sapiens, A549; A-549, SRB method; read-out: cytotoxicity (ED50) A-549
Protocol: (§1) The chalcone derivatives of the present invention were evaluated for in vitro cytotoxicity against human carcinoma cell lines using a sulforhodamine B (SRB) method, which was developed in 1989 by the National Cancer Institute (NCI), USA.
(§2) HCT15 (colon adenocarcinoma; ATCC CCL-225), PC-3 (prostate adenocarcinoma; ATCC CRL-1435), and A-549 (lung carcinoma; ATCC CCL-185) cell lines were used. All of these carcinoma cells were sub-cultured at the Korean Research Institute of Bioscience and Biotechnology (KRIBB), Korea.
(§3) The human carcinoma cell lines were cultured in 10% FCS-containing RPMI 1640 medium (Gibco Cat. No. 31800) in an incubator at 37° C. under 5% CO2, and sub-cultured twice per week.
(§4) Cells were detached from the attached surface using 0.25% Trypsin (Sigma) and 3 mM CDTA (1,2-cyclohexane diamine tetraacetic acid, Sigma) in phosphate buffered saline (PBS, Sigma).
(§5) Compounds to be tested (the chalcone derivatives set forth in Table 1) were dissolved in a small amount of dimethylsulfoxide (DMSO, Sigma), and diluted in culture medium to a desired concentration. The final concentration of DMSO was less than 0.5%. The diluted compounds (final concentration: 30, 10, 3, 1 and 0.3 μg/ml) were sterilized through a 0.22-μm microfilter (Millipore). The cytotoxicity of the compounds to human carcinoma cell lines was assessed using a typical SRB method.

[1] = system: HCT15 (colon adenocarcinoma); assay: In vitro cytotoxicity, sulforhodamine B (SRB) method, HCT15; settings: Homo sapiens; HCT-15, SRB method; read-out: cytotoxicity (ED50) HCT-15
Protocol: as §1, §2, §3, §4, §5

[2] = system: PC-3 (prostate adenocarcinoma); assay: In vitro cytotoxicity, sulforhodamine B (SRB) method, PC-3; settings: Homo sapiens; PC-3, SRB method; read-out: cytotoxicity (ED50) PC-3
Protocol: as §1, §2, §3, §4, §5

Row | Compound | IC50 (A-549 (lung carcinoma)) [µg/mL] | IC50 [1] [µg/mL] | IC50 [2] [µg/mL]
1 | O=C(/C=C/c1cccc(O)c1O)c1ccc(OS(=O)(=O)c2cccc(O)c2)cc1 [Compound 95, 4′-(m-hydroxybenzenesulfonate)-2,3-dihydroxychalcone] | 9 (≈ 21.8 µM) | 9 (≈ 21.8 µM) | 11 (≈ 26.7 µM)
2 | O=C(/C=C/c1ccc(O)cc1O)c1cccc(NS(=O)(=O)c2ccc(O)cc2)c1 [Compound 54, 3′-(p-hydroxybenzenesulfonylamino)-2,4-dihydroxychalcone] | 9 (≈ 21.9 µM) | 7 (≈ 17 µM) | 9 (≈ 21.9 µM)
3 | CS(=O)(=O)Oc1ccc(C(=O)/C=C/c2ccc(O)cc2)cc1 [Compound 41, 4′-(methanesulfonate)-4-hydroxychalcone] | 49 | 42 | 48
4 | O=C(/C=C/c1ccc(O)cc1)c1ccccc1NS(=O)(=O)c1ccc(O)cc1 [Compound 12, 2′-(p-hydroxybenzenesulfonylamino)-4-hydroxychalcone] | 35 (≈ 88.5 µM) | 37 (≈ 93.6 µM) | 37 (≈ 93.6 µM)
5 | O=C(/C=C/c1ccccc1O)c1ccccc1NS(=O)(=O)c1ccc(O)cc1 [Compound 14, 2′-(p-hydroxybenzenesulfonylamino)-2-hydroxychalcone] | 31 (≈ 78.4 µM) | 38 (≈ 96.1 µM) | 29 (≈ 73.3 µM)
6 | O=C(/C=C/c1ccc(O)c(O)c1)c1ccc(OS(=O)(=O)c2cccc(O)c2)cc1 [Compound 94, 4′-(m-hydroxybenzenesulfonate)-3,4-dihydroxychalcone] | 11 (≈ 26.7 µM) | 7 (≈ 17 µM) | 16 (≈ 38.8 µM)
7 | O=C(/C=C/c1ccccc1O)c1ccc(NS(=O)(=O)c2ccc(O)cc2)cc1 [Compound 8, 4′-(p-hydroxybenzenesulfonylamino)-2-hydroxychalcone] | 31 (≈ 78.4 µM) | 30 (≈ 75.9 µM) | 34 (≈ 86 µM)
8 | O=C(/C=C/c1cccc(O)c1O)c1ccc(NS(=O)(=O)c2ccc(O)cc2)cc1 [Compound 49, 4′-(p-hydroxybenzenesulfonylamino)-2,3-dihydroxychalcone] | 6 (≈ 14.6 µM) | 8 (≈ 19.4 µM) | 14 (≈ 34 µM)
9 | O=C(/C=C/c1ccc(O)c(O)c1)c1ccc(NS(=O)(=O)c2cccc(O)c2)cc1 [Compound 60, 4′-(m-hydroxybenzenesulfonylamino)-3,4-dihydroxychalcone] | 7 (≈ 17 µM) | 4 (≈ 9.72 µM) | 8 (≈ 19.4 µM)
10 | O=C(/C=C/c1ccc(O)cc1)c1cccc(NS(=O)(=O)c2cccc(O)c2)c1 [Compound 18, 3′-(m-hydroxybenzenesulfonylamino)-4-hydroxychalcone] | 31 (≈ 78.4 µM) | 33 (≈ 83.5 µM) | 39 (≈ 98.6 µM)
11 | O=C(/C=C/c1ccc(O)cc1O)c1ccc(OS(=O)(=O)c2ccc(O)cc2)cc1 [Compound 92, 4′-(p-hydroxybenzenesulfonate)-2,4-dihydroxychalcone] | 9 (≈ 21.8 µM) | 8 (≈ 19.4 µM) | 7 (≈ 17 µM)
12 | O=C(/C=C/c1ccccc1O)c1cccc(NS(=O)(=O)c2ccc(O)cc2)c1 [Compound 11, 3′-(p-hydroxybenzenesulfonylamino)-2-hydroxychalcone] | 38 (≈ 96.1 µM) | 39 (≈ 98.6 µM) | 41 (≈ 104 µM)
13 | O=C(/C=C/c1ccccc1O)c1ccc(NS(=O)(=O)c2cccc(O)c2)cc1 [Compound 17, 4′-(m-hydroxybenzenesulfonylamino)-2-hydroxychalcone] | 33 (≈ 83.5 µM) | 32 (≈ 80.9 µM) | 44 (≈ 111 µM)
14 | Nc1ccc(S(=O)(=O)Nc2ccc(C(=O)/C=C/c3ccc(O)c(O)c3)cc2)cc1 [Compound 78, 4′-(p-aminobenzensulfonylamino)-3,4-dihydroxychalcone] | 10 (≈ 24.4 µM) | 5 (≈ 12.2 µM) | 7 (≈ 17.1 µM)
15 | O=C(/C=C/c1cc(O)ccc1O)c1ccc(OS(=O)(=O)c2cccc(O)c2)cc1 [Compound 97, 4′-(m-hydroxybenzenesulfonate)-2,5-dihydroxychalcone] | 6 (≈ 14.5 µM) | 11 (≈ 26.7 µM) | 8 (≈ 19.4 µM)
16 | O=C(/C=C/c1ccc(O)c(O)c1)c1ccc(NS(=O)(=O)c2ccc(O)cc2)cc1 [Compound 48, 4′-(p-hydroxybenzenesulfonylamino)-3,4-dihydroxychalcone] | 8 (≈ 19.4 µM) | 7 (≈ 17 µM) | 11 (≈ 26.7 µM)
17 | O=C(/C=C/c1ccc(O)cc1)c1ccc(OS(=O)(=O)c2cccc(O)c2)cc1 [Compound 87, 4′-(m-hydroxybenzenesulfonate)-4-hydroxychalcone] | 20 (≈ 50.5 µM) | 19 (≈ 47.9 µM) | 21 (≈ 53 µM)
